In assay [1] the test system is atherosclerotic aortas of Apoe−/− mice. The assay can be described thus: Gene expression in atherosclerotic aortas of Apoe−/− mice. The class given is in vivo. The following applies: Apoe−/− mice 8 months of age, treated 3 days. The method, then:
Next, the influence of LXR agonists on inflammatory gene expression induced by IL-1β and TNFα, which have been implicated in the pathogenesis of atherosclerosis, was tested. […] Gene expression was detected by real-time quantitative PCR assays. […] Total RNA was isolated from individual aortas and gene expression was measured by real-time quantitative PCR. P<0.05 for MMP-9 (*) and P<0.01 (**) for ABCA1. […] Thus, LXR agonist reduces expression of an established inflammatory mediator in the vessel wall. RNA and protein analysis. Total RNA was extracted using Trizol reagent (Life Technologies, Inc.). Northern blot analysis was carried out as described using radiolabeled cDNA probes (Tontonoz, P. et al. 1998 Cell 93:241-252). Real-time quantitative PCR (TaqMan) analysis was performed using an Applied Biosystems 7700 sequence detector. Two-step real-time PCR was performed as described (Joseph, S. B. et al. 2002 J Biol Chem 277:11019-11025). The primers and probes used are as follows: Animals. Mice on a mixed background (C57B1/6 and 129v) and Apoe^−/− mice on a C57B1/6 background were maintained on standard chow. […] Irritant contact dermatitis was induced as described (Sheu, M. Y. et al. 2002 J Invest Dermatol 118:94-101). Briefly, 10 μl of 0.03% 12-O-tetradecanoylphorbol-13-acetate (TPA) in acetone was applied to the left ears of male mice. The right ears were treated with vehicle alone. […] After 18 h of TPA treatment, the thickness and weight of 6-mm punch biopsies were determined. Statistical analysis was performed using Student's t-test. Experiments were conducted in accordance of the Animal Research Committee of the University of California, Los Angeles.

The subject of assay [2] is human peripheral blood mononuclear cells. In words: TNF-induced gene expression in human peripheral blood mononuclear cells. The class given is cell-based. The following applies: TNF 6 hours; real time qPCR. The protocol: Activation of LXR by synthetic ligands inhibits inflammatory gene expression in multiple human cell types (FIG. 7A-C). TNFα plays a role in the induction of inflammatory mediators in during inflammation. Cells were treated for 6 hours with TNF as indicated and gene expression was measured by real time qPCR.
(Real-time PCR tracks product formation cycle by cycle.)

As to `O=C(O)Cc1cccc(OCCCN(Cc2cccc(C(F)(F)F)c2Cl)CC(c2ccccc2)c2ccccc2)c1` [GW3965], in assay [1] (real-time quantitative PCR), the “expression of ABCA1 in aorta” value is on record as “induced” and the “expression of macrophage-specific marker CD68 in aorta” value was “did not affect”. Moreover, in assay [1] (versus vehicle), the “expression of MCP-1 in aorta” value is reported as “not different”, the “expression of MMP-9 in aorta” value is “substantially reduced” and the “expression of iNOS in aorta” value was “not different”. The TNF-induced gene expression result in assay [2] was “inhibited”.

The values are drawn from patent US20040259948A1, “Reciprocal regulation of inflammation and lipid metabolism by liver X receptors” (priority 2003, published 2004).
